The source of these data is article PMC8928955, “Assessment of Bioavailability after In Vitro Digestion and First Pass Metabolism of Bioactive Peptides from Collagen Hydrolysates” (Current Issues in Molecular Biology, 2021).

Like-named read-outs stand apart in the source and are kept apart here. Non-standard residues stand in square brackets, D forms with d. Residues, ends and D or L forms follow the SMILES beside them. Hyp = O=C(O)[C@@H]1C[C@@H](O)CN1 Some results are limits rather than exact numbers.

The test system of series [1] is HIEC-6 cells. Nature of the series: Peptide transport and apparent permeability across the HIEC-6 intestinal layer of a HIEC-6/HepG2 transwell co-culture. Conditions: basolateral 2 h vs apical 0 h, mean ± SEM.
Procedure: (§1) A HIEC-6/HepG2 cell co-culture system was used to determine the bioavailability of targeted BAPs from CHs after digestion (Figure 1). HIEC-6 cells and HepG2 were cultured separately but then later combined in a transwell system using polyester (PET) ThinCerts (Greiner Bio-One, Cat no. 662641, Monroe, NC, USA) and corresponding 24 multiwell cell culture plates (Greiner Bio-One, Cat no. 662160, Monroe, NC, USA). […] HIEC-6 cells were seeded onto ThinCerts at 1 × 10^5 cells/well. The medium was changed every 2 days and cells were grown for a total of 8–9 days. […] HepG2 cells were then added to the basolateral side of the transwell (1 million cells/mL). […] At time 0, the apical medium was replaced with media containing 2 mg/mL reconstituted freeze-dried (FD) CH digesta (either CH-GL and CH-OPT), or only media (blank). The co-culture and treatments were incubated for 2 h at 37 °C, 5% CO2. After 2 h, the inserts containing HIEC-6 cells were removed, and the plates containing HepG2 cells were incubated for another 3 h. Samples were taken from the apical and basolateral sides at times 0, 2 and 5 h, and microcentrifuged at 2000 rpm for 15 min. The supernatant was collected and used for subsequent peptide analysis (see Section 2.7). Three independent experiments assessing bioavailability were completed. Controls included inserts without seeded cells (TEER control) and seeded wells with no CHs treatment (only media; negative control).
(§2) Samples were purified from cellular and protein debris by adapting the use of Amicon® Ultra-0.5 Centrifugal Filter Devices (Millipore, UFC501096, Burlington, Massachusetts, USA). Samples from cell culture were processed as per the manufacturer’s instructions, however, the filtrate (comprising of peptides) was not discarded and instead used for analysis. A CE system (Capel 205M; Lumex Instruments, Fraserview Place, BC) was used for the targeted quantification of 5 peptides (Gly-Pro, Hyp-Gly, Ala-Hyp, Pro-Hyp, Gly-Pro-Hyp). The instrument was set for 20 °C and the separation capillary (Molex, 2000019, Lisle, Illinois, US) was similar to previous CE methods for collagen analysis [36]; 60 cm in total length, 53 cm effective length, and 75 µm inside diameter. Injections were completed using pressure (30 mbar for 10 s) at 0 kV and analysis was completed at 20 kV using 0 mbar for 1199 s at 205 nm. A 0.1 M phosphate buffer (pH 2.4) was used for rinsing and as running buffer. Filtered samples were diluted with running buffer before injection. Before sample injection, the capillary was rinsed with MilliQ water, 0.5 M NaOH and running buffer, each for 5 min. The electropherograms were processed to determine peak area using the software Elforun (Lumex Instruments Canada, Version 4.2.4, Mission, BC, Canada). Quantification of each peptide, based on peak area, was performed using external standards and corresponding calibration curves, where the linearity was assessed by the coefficients of determination, R^2. The mean of three measurements for each treatment was taken.
(§3) The apparent permeability coefficient (Papp) was calculated similarly to Song et al. (2020) [7], using the standard equation:Papp = ΔQ/(Δt × A × C0) where Δt is the incubation time (s), A is the surface area of the insert filter membrane (cm^2), C0 is the initial concentration of peptides in the apical compartment at time 0 h (μM), and ΔQ is the amount of peptide transported within a given period (μmol/s). The incubation timepoint (Δt) used was representative of the intestinal transport phase (2 h timepoint).
Test in series [2]: as above
Conditions: human; for Papp A→B at 2 h: Apparent permeability coefficient (Papp), mean ± SEM.
Procedure: as §1, §2, §3

Series [3] can be described thus: Bioavailability after first pass metabolism in HIEC-6/HepG2 co-culture. Conditions: human.
Procedure: as §1, §2
(§4) Bioavailability, after first pass metabolism, was expressed as a percentage of final and initial peptide digesta values, as described in Sadeghi Ekbatan et al. (2018) [8]. Bioavailability (%) = Peptide content after HepG2 incubation (Basolateral 5 h)/Initial amount of peptide (Apical 0 h) × 100
In series [4] the test system is HepG2 cells. Nature of the series: Hepatic first pass effect on transported peptides after HepG2 incubation. Conditions: basolateral 5 h as percentage of basolateral 2 h, mean ± SEM.
Procedure: as §1
(§5) Samples were purified from cellular and protein debris by adapting the use of Amicon® Ultra-0.5 Centrifugal Filter Devices (Millipore, UFC501096, Burlington, Massachusetts, USA). Samples from cell culture were processed as per the manufacturer’s instructions, however, the filtrate (comprising of peptides) was not discarded and instead used for analysis. A CE system (Capel 205M; Lumex Instruments, Fraserview Place, BC) was used for the targeted quantification of 5 peptides (Gly-Pro, Hyp-Gly, Ala-Hyp, Pro-Hyp, Gly-Pro-Hyp). […] Injections were completed using pressure (30 mbar for 10 s) at 0 kV and analysis was completed at 20 kV using 0 mbar for 1199 s at 205 nm. A 0.1 M phosphate buffer (pH 2.4) was used for rinsing and as running buffer. Filtered samples were diluted with running buffer before injection. Before sample injection, the capillary was rinsed with MilliQ water, 0.5 M NaOH and running buffer, each for 5 min. The electropherograms were processed to determine peak area using the software Elforun (Lumex Instruments Canada, Version 4.2.4, Mission, BC, Canada). Quantification of each peptide, based on peak area, was performed using external standards and corresponding calibration curves, where the linearity was assessed by the coefficients of determination, R^2. The mean of three measurements for each treatment was taken.
(§6) Hepatic first pass effect (%) was calculated as:Hepatic effect (%) = Peptide content after incubation with HepG2 (Basolateral 5 h)/Content of peptide available for liver metabolism (Basolateral 2 h) × 100
Another series concerns HIEC-6/HepG2 co-culture. Conditions: human.
The conditions of series [5]: human, in vivo.
In a further series the test system is Caco-2 cells. Conditions: cited from earlier work.
Series [6] relates to HIEC-6 cells.
Procedure: as §1, §2, §3
The subject of series [7] is HepG2 cells.
Procedure: as §1, §5, §6
A short description of series [8]: in vitro. The following applies: human, Apparent permeability coefficient (Papp).
Procedure: as §1, §2, §3
The conditions of series [9]: human, in vivo; cited from earlier work.
Series [10] is described as follows: in vitro. Conditions: human.
Procedure: as §1, §2, §4
Where [11] appears, read: Peptide bioavailability after first pass metabolism.

Usually Papp stands for the rate of passage across a membrane or cell layer, normalised by area and donor concentration. The Papp A→B is the apparent permeability from the apical to the basolateral side of a cell layer. As usually defined, the bioavailability is dose-corrected exposure relative to a reference, in per cent. The low end stands for poor availability, the high end for good availability. Take `C[C@H](N)C(=O)N1C[C@H](O)C[C@H]1C(=O)O` [Ala-Hyp] (H-Ala-[Hyp]-OH; N-terminus and C-terminus assumed): the “Peptide transport (%) across intestinal epithelium” value in the series with HIEC-6 cells [1] (CH-GL digesta 2 mg/mL apical) was found to be 9.27 ± 2.49%; in the series with HIEC-6 cells [1] (CH-OPT digesta 2 mg/mL apical) it was 26.4 ± 5.78%. Also, in series [2], the Papp at 2 h was found to be 0.725 ± 0.195 ×10⁻⁶ cm/s. For the same compound, the apparent permeability from apical to basolateral (Papp A→B) at 2 h is 0.725 ± 0.195 ×10⁻⁶ cm/s in series [2] (CH-GL treatment) and 1.03 ± 0.226 ×10⁻⁶ cm/s in series [2] (CH-OPT treatment). Also, the bioavailability at 5 h in series [3] (Average bioavailability after first pass metabolism, average) is greater than 20%. The “Hepatic effect (%) on peptide content following HepG2 incubation” value (from here on “Hepatic effect (%)”) in the series on HepG2 cells [4] (CH-GL) turned out to be 304.9 ± 57.2%; in the series with HepG2 cells [4] (CH-OPT) it was 198.0 ± 107.6%.

Consider `NCC(=O)N1CCC[C@H]1C(=O)N1C[C@H](O)C[C@H]1C(=O)O` [Gly-Pro-Hyp] (H-Gly-Pro-[Hyp]-OH; N-terminus and C-terminus assumed), for which the “Bioavailability (%) after first pass metabolism” value in the series with HIEC-6/HepG2 co-culture is “none was observed”. The “Increase of plasma Gly-Pro-Hyp content” value in series [5] was determined as 162.5%. In the series on Caco-2 cells (Caco-2), the Papp is on record as 1.09 ± 0.03 × 10^−6 cm/s. Also, the “Apparent permeability coefficient (Papp)” value in the series with HIEC-6 cells [6] is “no apparent permeability coefficient could be determined”. Besides, the “Hepatic effect (%)” value in the series on HepG2 cells [7] is on record as 22.32 ± 5.09%. The Papp A→B at 2 h in “in vitro [8]” was roughly 9 ×10⁻⁶ cm/s. For the same compound, in [9], the “Gly-Pro-Hyp content in the plasma after 2 h” value is listed as ~ 1050 µM and the “Initial Gly-Pro-Hyp content in the plasma” value is recorded as ~ 400 µM. Besides, in “in vitro [10]” (Bioavailability (%) after first pass metabolism), the bioavailability at 5 h was found to be 12.2 ± 1.12%.

`NCC(=O)N1CCC[C@H]1C(=O)O` [Gly-Pro] (H-Gly-Pro-OH; N-terminus and C-terminus assumed): the bioavailability at 5 h in “in vitro [10]” (setting [11]) is greater than 32%.

As for `O=C(O)CNC(=O)[C@@H]1C[C@@H](O)CN1` [Hyp-Gly] (H-[Hyp]-Gly-OH; N-terminus and C-terminus assumed), the Papp in the series on Caco-2 cells (Caco-2) is 1e-05 cm/s. In addition, the “Transport (%)” value in the series with Caco-2 cells is reported as 22.63 ± 5.19%. Besides, the “Apparent permeability coefficient (Papp)” value in the series on HIEC-6 cells [6] (human, 2 h) is given as 5.593 ± 2.476 × 10^−6 cm/s. Moreover, in “in vitro [8]”, the Papp A→B at 2 h was found to be 6.74 ± 1.2 ×10⁻⁶ cm/s. In addition, in the series “in vitro [10]” (setting [11]), the bioavailability at 5 h was greater than 32%.

Take `O=C(O)[C@@H]1C[C@@H](O)CN1C(=O)[C@@H]1CCCN1` [Pro-Hyp] (H-Pro-[Hyp]-OH; N-terminus and C-terminus assumed): the “Peptide transport (%) across intestinal epithelium” value in the series on HIEC-6 cells [1] (CH-GL digesta 2 mg/mL apical) worked out at 19.18 ± 4.81%; with HIEC-6 cells [1] (CH-OPT digesta 2 mg/mL apical) it was 24.15 ± 1.42%. Further, the Papp A→B at 2 h in [2] (CH-GL treatment) worked out at 1.91 ± 0.479 ×10⁻⁶ cm/s. In addition, the Papp was 0.13 ± 0.03 × 10^−6 cm/s with Caco-2 cells (Caco-2, LC-MS/MS, ref 15 (Sontakke et al. 2016)) and 1.45 ± 0.17 × 10^−6 cm/s in the series on Caco-2 cells (cell model not printed at the place, ref 40 (Feng et al. 2017)). The bioavailability at 5 h in [3] (Bioavailability (%) after first pass metabolism, CH-GL, basolateral 5 h as percentage of apical 0 h, mean ± SEM) is 26.8 ± 3.97%; in [3] (Bioavailability (%) after first pass metabolism, CH-OPT, basolateral 5 h as percentage of apical 0 h, mean ± SEM), 15.4 ± 2.6%. The “Hepatic effect (%)” value in the series with HepG2 cells [4] (CH-GL) is reported as 151.4 ± 24.3%; in the series on HepG2 cells [4] (CH-OPT), 63.63 ± 8.63%.
